{"source": "PubChem BioAssay (NCI)", "test_in_all_cases": "NCI tumour cell line growth inhibition, 48 h", "key": {"[1]": {"system": "SW-620 colon"}, "[2]": {"system": "M14 melanoma"}, "[3]": {"system": "A549 NSCLC"}, "[4]": {"system": "OVCAR-8 ovarian"}, "[5]": {"system": "T-47D breast"}, "[6]": {"system": "OVCAR-5 ovarian"}, "[7]": {"system": "EKVX NSCLC"}, "[8]": {"system": "HCC-2998 colon"}, "[9]": {"system": "SK-MEL-5 melanoma"}, "[10]": {"system": "MOLT-4 leukemia"}, "[11]": {"system": "UACC-257 melanoma"}, "[12]": {"system": "RXF 393 renal"}, "[13]": {"system": "COLO 205 colon"}, "[14]": {"system": "CCRF-CEM leukemia"}, "[15]": {"system": "HCT-116 colon"}, "[16]": {"system": "HS 578T breast"}, "[17]": {"system": "SF-539 CNS"}, "[18]": {"system": "SN12C renal"}, "[19]": {"system": "NCI-H460 lung"}, "[20]": {"system": "SR leukemia"}, "[21]": {"system": "SF-295 CNS"}, "[22]": {"system": "UACC-62 melanoma"}, "[23]": {"system": "DU-145 prostate"}, "[24]": {"system": "SK-OV-3 ovarian"}, "[25]": {"system": "MCF7 breast"}, "[26]": {"system": "A498 renal"}, "[27]": {"system": "ACHN renal"}, "[28]": {"system": "NCI-H23 lung"}}, "note": "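Compound exposure: 48 hours, 5 concentrations, 96-well plates. GI50 is the concentration that inhibits growth by half. TGI marks complete inhibition of growth.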"}
{"smiles": "CC[C@]12C=CCN3CC[C@@]4(c5ccc(OC)cc5N(C)[C@H]4[C@@](O)(C(=O)OC)[C@@H]1OC(=O)CCC[P+](c1ccc(F)cc1)(c1ccc(F)cc1)c1ccc(F)cc1)[C@@H]32", "values": [{"measurement": "GI50", "setting": "[1]", "value": 18.3, "unit": "µM"}, {"measurement": "TGI", "setting": "[1]", "value": "> 48.5", "unit": "µM"}, {"measurement": "GI50", "setting": "[2]", "value": 9.1, "unit": "µM"}, {"measurement": "TGI", "setting": "[2]", "value": 28.9, "unit": "µM"}, {"measurement": "GI50", "setting": "[3]", "value": 21.2, "unit": "µM"}, {"measurement": "TGI", "setting": "[3]", "value": "> 48.5", "unit": "µM"}, {"measurement": "GI50", "setting": "[4]", "value": 18.4, "unit": "µM"}, {"measurement": "TGI", "setting": "[4]", "value": "> 48.5", "unit": "µM"}, {"measurement": "GI50", "setting": "[5]", "value": 10.5, "unit": "µM"}, {"measurement": "TGI", "setting": "[5]", "value": "> 48.5", "unit": "µM"}, {"measurement": "GI50", "setting": "[6]", "value": 20.8, "unit": "µM"}, {"measurement": "TGI", "setting": "[6]", "value": "> 48.5", "unit": "µM"}, {"measurement": "GI50", "setting": "[7]", "value": 19.4, "unit": "µM"}, {"measurement": "TGI", "setting": "[7]", "value": "> 48.5", "unit": "µM"}, {"measurement": "GI50", "setting": "[8]", "value": 9.53, "unit": "µM"}, {"measurement": "TGI", "setting": "[8]", "value": 30, "unit": "µM"}, {"measurement": "GI50", "setting": "[9]", "value": 8.26, "unit": "µM"}, {"measurement": "TGI", "setting": "[9]", "value": 15.7, "unit": "µM"}, {"measurement": "GI50", "setting": "[10]", "value": 9.69, "unit": "µM"}, {"measurement": "TGI", "setting": "[10]", "value": "> 48.5", "unit": "µM"}, {"measurement": "GI50", "setting": "[11]", "value": 4.67, "unit": "µM"}, {"measurement": "TGI", "setting": "[11]", "value": 12, "unit": "µM"}, {"measurement": "GI50", "setting": "[12]", "value": 8.46, "unit": "µM"}, {"measurement": "TGI", "setting": "[12]", "value": 30.7, "unit": "µM"}, {"measurement": "GI50", "setting": "[13]", "value": 4.98, "unit": "µM"}, {"measurement": "TGI", "setting": "[13]", "value": 11.1, "unit": "µM"}, {"measurement": "GI50", "setting": "[14]", "value": 12.7, "unit": "µM"}, {"measurement": "TGI", "setting": "[14]", "value": 37.4, "unit": "µM"}, {"measurement": "GI50", "setting": "[15]", "value": 14.8, "unit": "µM"}, {"measurement": "TGI", "setting": "[15]", "value": "> 48.5", "unit": "µM"}, {"measurement": "GI50", "setting": "[16]", "value": 11.8, "unit": "µM"}, {"measurement": "TGI", "setting": "[16]", "value": 42.4, "unit": "µM"}, {"measurement": "GI50", "setting": "[17]", "value": 16.8, "unit": "µM"}, {"measurement": "TGI", "setting": "[17]", "value": "> 48.5", "unit": "µM"}, {"measurement": "GI50", "setting": "[18]", "value": 14.8, "unit": "µM"}, {"measurement": "TGI", "setting": "[18]", "value": "> 48.5", "unit": "µM"}, {"measurement": "GI50", "setting": "[19]", "value": 17, "unit": "µM"}, {"measurement": "TGI", "setting": "[19]", "value": "> 48.5", "unit": "µM"}, {"measurement": "GI50", "setting": "[20]", "value": 7.45, "unit": "µM"}, {"measurement": "TGI", "setting": "[20]", "value": 17.3, "unit": "µM"}, {"measurement": "GI50", "setting": "[21]", "value": "> 48.5", "unit": "µM"}, {"measurement": "TGI", "setting": "[21]", "value": "> 48.5", "unit": "µM"}, {"measurement": "GI50", "setting": "[22]", "value": 6.05, "unit": "µM"}, {"measurement": "TGI", "setting": "[22]", "value": 12.3, "unit": "µM"}, {"measurement": "GI50", "setting": "[23]", "value": 23.7, "unit": "µM"}, {"measurement": "TGI", "setting": "[23]", "value": "> 48.5", "unit": "µM"}, {"measurement": "GI50", "setting": "[24]", "value": 15.8, "unit": "µM"}, {"measurement": "TGI", "setting": "[24]", "value": "> 48.5", "unit": "µM"}, {"measurement": "GI50", "setting": "[25]", "value": 8.26, "unit": "µM"}, {"measurement": "TGI", "setting": "[25]", "value": 30.8, "unit": "µM"}, {"measurement": "GI50", "setting": "[26]", "value": "> 48.5", "unit": "µM"}, {"measurement": "TGI", "setting": "[26]", "value": "> 48.5", "unit": "µM"}, {"measurement": "GI50", "setting": "[27]", "value": "> 48.5", "unit": "µM"}, {"measurement": "TGI", "setting": "[27]", "value": "> 48.5", "unit": "µM"}, {"measurement": "GI50", "setting": "[28]", "value": 15.8, "unit": "µM"}]}
